In ChEMBL document CHEMBL1135005, “Synthesis and biological evaluation of aristolactams” (Bioorg Med Chem Lett, 2002) one finds IC50 data, which are given here for 20 compounds.

The test concerns L1210. Briefly: In vitro cytotoxic activity against L1210 murine leukemia cells. To be noted: Mus musculus. In kind it is functional, cell-based.
As for `COc1cc2c3c(cc4cc(OC)c(OCc5ccccc5)c(OC)c4c3c1)N(C)C2=O`, the IC50 was more than 10 µM. Next, `COc1ccc(CN2C(=O)c3cc(OCc4ccccc4)cc4c3c2cc2cc(OC)c(OCc3ccccc3)c(OC)c24)cc1`: more than 100 µM; `COc1cc2c3c(cc4cc(OC)c(O)c(OC)c4c3c1)N(C)C2=O`: 1.6 µM; `COc1cc2c3c(cc4ccc(O)cc4c3c1)N(CCCN(C)C)C2=O`: 1.6 µM. For `COc1ccc2cc3c4c(cc(OC)cc4c2c1)C(=O)N3CCC=O`, the IC50 is 5.2 µM. The figure for `COc1cc2cc3c4c(cccc4c2c(OC)c1O)C(=O)N3CCCCN(C)C` is 1.8 µM. The figure for `COc1cc2cc3c4c(cccc4c2c(OC)c1OCc1ccccc1)C(=O)N3CCCCN(C)C` is 10.8 µM; for `CCN(CC)CCN1C(=O)c2cc(OC)cc3c2c1cc1cc(OC)c(O)c(OC)c13` it is 2.3 µM; for `COc1cc2c3c(cc4cc(OC)c(O)c(OC)c4c3c1)N(CCCN(C)C)C2=O` it is 5.4 µM. The figure for `COc1ccc(CN2C(=O)c3cc(OC)cc4c3c2cc2cc(OC)c(OC)c(OC)c24)cc1` is more than 10 µM; for `CCOC(CCCN1C(=O)c2cccc3c2c1cc1cc(OC)c(OCc2ccccc2)c(OC)c13)OCC` it is 21.2 µM.

Take `COc1cc2c3c(cc4cc(OC)c(OCc5ccccc5)c(OC)c4c3c1)N(CCC=O)C2=O`: 4.7 µM corresponded to half-maximal inhibition (IC50). The figure for `COc1ccc(CN2C(=O)c3cc(O)cc4c3c2cc2cc(OC)c(O)c(OC)c24)cc1` is 2.6 µM; for `CCOC(CCN1C(=O)c2cc(OC)cc3c2c1cc1ccc(OC)cc13)OCC` it is more than 10 µM. Next, `COc1ccc(CN2C(=O)c3cc(OC)cc4c3c2cc2cc(OC)ccc24)cc1`: 66.6 µM; `COc1cc2c(cc3c4c(cc5c(c42)OCO5)C(=O)N3CCCN(C)C)c(OC)c1OC(C)C`: 4.3 µM; `CN1C(=O)c2ccc(OCc3ccccc3)c3c2c1cc1cc(OCc2ccccc2)ccc13`: 79.2 µM. The figure for `CCOC(CCN1C(=O)c2cc3c(c4c2c1cc1c(OC)c(OC(C)C)c(OC)cc14)OCO3)OCC` is 16.3 µM; for `COc1cc2cc3c4c(cccc4c2c(OC)c1OCc1ccccc1)C(=O)N3CCCC=O` it is 17.6 µM. `COc1cc2c(cc3c4c(cc5c(c42)OCO5)C(=O)N3CCC=O)c(OC)c1OC(C)C` returned an IC50 of 7.8 µM.
